Read-outs that look alike come from different tables or passages of the source. Numbered stars: 1 amine (or outer) side, 2 acyl side, 3 side chain; on linkers, the order of the positions; unused ones are H or OH. Square brackets hold non-standard residues; d marks the D form. Side chains are listed from the residue outwards. Peptide text beside a SMILES is read from it. * marks the point of attachment. ξ: configuration not given here. Dap(Nα-HOOC(CH2)16CO)OH = O=C(O)CCCCCCCCCCCCCCCCC(=O)N[C@@H](CN*)C(=O)O; X5 = O=C(O)CCCCCCCCCCCCCCCc1cn(-c2ccc(C[C@H](N[*:1])C(=O)[*:2])cc2)nn1; X3 = O=C(O)CCCCCCCCCCCCCCCc1cnnn1-c1ccc(C[C@H](N[*:1])C(=O)[*:2])cc1; X6 = O=C([C@H](CCc1ccc(OC(=O)[*:3])cc1)N[*:1])[*:2]; X7 = C[C@@](Cc1ccc(-c2ccccc2)cc1)(N[*:1])C(=O)[*:2]; X4 = C[C@](Cc1ccc(-c2ccccc2)cc1)(N[*:1])C(=O)[*:2]; Bip = N[C@@H](Cc1ccc(-c2ccccc2)cc1)C(=O)O; X2 = O=C(CCc1ccc(I)cc1)N[C@@H](CN*)C(=O)O; αMePhe(2-F) = C[C@](N)(Cc1ccccc1F)C(=O)O; ξαMePhe(2-F) = CC(N)(Cc1ccccc1F)C(=O)O; αMeF = C[C@](N)(Cc1ccccc1)C(=O)O; αMeP = C[C@@]1(C(=O)O)CCCN1; ξαMeP = CC1(C(=O)O)CCCN1; ξαMeS = CC(N)(CO)C(=O)O; AEEA = NCCOCCOCC(=O)O; Aib = CC(C)(N)C(=O)O; CO = O=C([*:1])[*:2]
Molecular target: T1, hGLP1 receptor (Homo sapiens, UniProt P43220)
T1 construct: expressed in transfected cells; host or cells: HEK (human embryonic kidney) cells co-expressing hGLP1 receptor and a CRE-Luciferase construct
Experiment: cAMP HTRF agonist assay in HEK cells co-expressing the hGLP1 receptor and CRE-Luciferase construct
Assay type: cell-based
Procedure: Human embryonic kidney cells (HEK) co-expressing the hGLP1 receptor and CRE-Luciferase construct were used to determine agonist potency in this assay. The cells were thawed briefly at 37° C., transferred to a sterile tube and re-suspended in complete media at 37° C. Cells were centrifuged at 1000 rpm for 5 minutes and cells collected; cells were re-suspended in assay buffer consisting of DPBS (GIBCO) with 500 μM of the phosphodiesterase inhibitor IBMX. […] The optimal cell density was determined to be 1000 cells/well; cells were added to wells in 384-well plates containing appropriate pre-prepared dilutions of compounds (test peptides or reference compound exendin-4), sealed and incubated with CO2 for 30 min. Test peptide solutions were diluted from 10 mM stock solutions; for most peptides an initial run was performed in duplicate from a maximal concentration of 1.0 μM, with 11 concentrations tested for each peptide using serial 1:3 dilution from this maximal concentration. […] The agonist assay was a homogeneous time-resolved fluorescence (HTRF) assay (Cisbio).
Following incubation of the cells for 30 minutes with test or reference peptides, 5 μL of the cAMP acceptor cAMP-d2, prepared previously as a working solution from frozen stock (1:20 dilution), was added to each well of the assay plate, along with 5 μL of anti-cAMP antibody-cryptate working solution (diluted 1:20 from frozen stock). The wells were incubated for 1 hour at room temperature, and fluorescence was then read at 665 and 615 nm with an Envision reader with TRF laser. Data were saved and analyzed using Prism software (GraphPad). Concentration-response analysis was performed using 4-parameter logistic fits of the resulting data, and EC50 values obtained for each test and reference compound.

[1] = Table 6, cell annotated (0% albumin), read-out: cAMP EC50
[2] = read-out: cAMP EC50, nM (0.1% albumin), Table 6, C-terminal PK-modifier conjugates, 0.1% albumin

T1 sequence (P43220 24-463): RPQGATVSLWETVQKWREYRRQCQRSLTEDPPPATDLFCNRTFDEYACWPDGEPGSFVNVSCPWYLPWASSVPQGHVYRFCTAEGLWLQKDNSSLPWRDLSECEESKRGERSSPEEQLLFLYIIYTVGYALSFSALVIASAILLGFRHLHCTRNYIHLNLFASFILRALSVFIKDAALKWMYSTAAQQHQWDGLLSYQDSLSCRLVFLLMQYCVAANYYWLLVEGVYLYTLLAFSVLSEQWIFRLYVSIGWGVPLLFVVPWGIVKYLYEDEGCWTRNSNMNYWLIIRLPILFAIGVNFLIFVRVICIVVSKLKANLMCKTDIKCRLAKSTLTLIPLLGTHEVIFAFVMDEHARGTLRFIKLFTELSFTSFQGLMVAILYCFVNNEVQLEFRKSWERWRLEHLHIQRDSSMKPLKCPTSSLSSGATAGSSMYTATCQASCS

EC50 [1] | SMILES | EC50 [2] | other results
0.7 nM | C[C@@H](O)[C@H](NC(=O)CNC(=O)[C@H](CCC(=O)O)NC(=O)[C@]1(C)CCCN1C(=O)[C@@H](N)Cc1c[nH]cn1)C(=O)N[C@@](C)(Cc1ccccc1F)C(=O)N[C@H](C(=O)N[C@@H](CO)C(=O)N[C@@H](CC(=O)O)C(=O)N[C@@H](Cc1ccc(-c2ccccc2)cc1)C(=O)N[C@@H](Cc1ccc(-n2nncc2CCCCCCCCCCCCCCCC(=O)O)cc1)C(N)=O)[C@@H](C)O [4-70-i2, H2N-His-α-MePro-Glu-Gly-Thr-α-MePhe(2-F)-Thr-Ser-Asp-Bip-FN3(C18 acid)-C(O)NH2] (H-H[αMeP]EGT[αMePhe(2-F)]TSD[Bip][X3]-NH2) |  | 
 | C[C@@H](O)[C@H](NC(=O)CNC(=O)[C@H](CCC(=O)O)NC(=O)C(C)(C)NC(=O)[C@@H](N)Cc1c[nH]cn1)C(=O)N[C@@](C)(Cc1ccccc1)C(=O)N[C@H](C(=O)N[C@@H](CO)C(=O)N[C@@H](CC(=O)O)C(=O)N[C@@H](Cc1ccc(-c2ccccc2)cc1)C(=O)N[C@@H](Cc1ccc(-c2ccccc2)cc1)C(N)=O)[C@@H](C)O [3-16, H2N-His-Aib-Glu-Gly-Thr-α-MePhe-Thr-Ser-Asp-Bip-Bip-C(O)NH2] (H-H[Aib]EGT[αMeF]TSD[Bip][Bip]-NH2) |  | EC50 (cAMP EC50, nM (0.1% albumin), Table 1, Phe6 modifications, 0.1% albumin): 0.32 nM
 | CC(C)[C@H](NC(=O)[C@@H](N)Cc1c[nH]cn1)C(=O)N[C@@H](CCC(=O)O)C(=O)NCC(=O)N[C@H](C(=O)N[C@@](C)(Cc1ccccc1F)C(=O)N[C@H](C(=O)N[C@@H](CO)C(=O)N[C@@H](CC(=O)O)C(=O)N[C@@H](Cc1ccc(-c2ccccc2)cc1)C(=O)N[C@@H](Cc1ccc(-c2ccccc2)cc1)C(N)=O)[C@@H](C)O)[C@@H](C)O [3-39, H2N-His-Val-Glu-Gly-Thr-α-MePhe(2-F)-Thr-Ser-Asp-Bip-Bip-C(O)NH2] (H-HVEGT[αMePhe(2-F)]TSD[Bip][Bip]-NH2) |  | potency compared with the parent peptide analog (1-2), in words (replacement of Aib2, versus parent 1-2): slightly less potency
0.05 nM | C[C@@H](O)[C@H](NC(=O)CNC(=O)[C@H](CCC(=O)O)NC(=O)[C@]1(C)CCCN1C(=O)[C@@H](N)Cc1c[nH]cn1)C(=O)N[C@@](C)(Cc1ccccc1F)C(=O)N[C@H](C(=O)N[C@@H](CO)C(=O)N[C@@H](CC(=O)O)C(=O)N[C@@H](Cc1ccc(-c2ccccc2)cc1)C(=O)N[C@@](C)(Cc1ccc(-c2ccccc2)cc1)C(N)=O)[C@@H](C)O [4-73-i1, H2N-His-α-MePro-Glu-Gly-Thr-α-MePhe(2F)-Thr-Ser-Asp-Bip-α-MeBip-C(O)NH2] (H-H[αMeP]EGT[αMePhe(2-F)]TSD[Bip][X7]-NH2) |  | 
0.04 nM | C[C@@H](O)[C@H](NC(=O)CNC(=O)[C@H](CCC(=O)O)NC(=O)[C@]1(C)CCCN1C(=O)[C@@H](N)Cc1c[nH]cn1)C(=O)N[C@@](C)(Cc1ccccc1F)C(=O)N[C@H](C(=O)N[C@@H](CO)C(=O)N[C@@H](CC(=O)O)C(=O)N[C@@H](Cc1ccc(-c2ccccc2)cc1)C(=O)N[C@@H](Cc1ccc(-n2cc(CCCCCCCCCCCCCCCC(=O)O)nn2)cc1)C(N)=O)[C@@H](C)O [4-70-i1, H2N-His-α-MePro-Glu-Gly-Thr-α-MePhe(2-F)-Thr-Ser-Asp-Bip-FN3(C18 acid)-C(O)NH2] (H-H[αMeP]EGT[αMePhe(2-F)]TSD[Bip][X5]-NH2) |  | 
 | C[C@@H](O)[C@H](NC(=O)CNC(=O)[C@H](CCC(=O)O)NC(=O)C1(C)CCCN1C(=O)[C@@H](N)Cc1c[nH]cn1)C(=O)NC(C)(Cc1ccccc1F)C(=O)NC(C)(CO)C(=O)N[C@@H](CO)C(=O)N[C@@H](CC(=O)O)C(=O)N[C@@H](Cc1ccc(-c2ccccc2)cc1)C(=O)N[C@@H](Cc1ccc(-c2ccccc2)cc1)C(N)=O (stereo partly shown) [3-59] (H-H[ξαMeP]EGT[ξαMePhe(2-F)][ξαMeS]SD[Bip][Bip]-NH2) |  | EC50 (cAMP EC50, nM (0.1% albumin), Table 4, N-terminal modifications, 0.1% albumin): 20.9 nM
 | C[C@@H](O)[C@H](NC(=O)CNC(=O)[C@H](CCC(=O)O)NC(=O)C(C)(C)NC(=O)[C@@H](N)Cc1c[nH]cn1)C(=O)N[C@@](C)(Cc1ccccc1F)C(=O)N[C@H](C(=O)N[C@@H](CO)C(=O)N[C@@H](CC(=O)O)C(=O)N[C@@H](Cc1ccc(-c2ccccc2)cc1)C(=O)N[C@H](Cc1ccc(OC(=O)NCCOCCOCC(=O)NCCOCCOCC(N)=O)cc1)C(N)=O)[C@@H](C)O [(D)-4-42, H2N-His-Aib-Glu-Gly-Thr-α-MePhe(2-F)-Thr-Ser-Asp-Bip-D-Tyr(O-R4)-C(O)NH2] (H-H[Aib]EGT[αMePhe(2-F)]TSD[Bip][dY]([CO-AEEA-AEEA-NH2])-NH2) | 791 nM | 
 | C[C@@H](O)[C@H](NC(=O)CNC(=O)[C@H](CCC(=O)O)NC(=O)C(C)(C)NC(=O)[C@@H](N)Cc1c[nH]cn1)C(=O)N[C@@](C)(Cc1ccccc1F)C(=O)N[C@H](C(=O)N[C@@H](CO)C(=O)N[C@@H](CC(=O)O)C(=O)N[C@@H](Cc1ccc(-c2ccccc2)cc1)C(=O)N[C@@H](CCc1ccc(OC(=O)NCCOCCOCC(=O)NCCOCCOCC(=O)NC[C@H](NC(=O)CCCCCCCCCCCCCCCCC(=O)O)C(=O)O)cc1)C(N)=O)[C@@H](C)O [4-39, H2N-His-Aib-Glu-Gly-Thr-α-MePhe(2-F)-Thr-Ser-Asp-Bip-Hph(4-OR5)-C(O)NH2] (H-H[Aib]EGT[αMePhe(2-F)]TSD[Bip][X6]([AEEA-AEEA-Dap(Nα-HOOC(CH2)16CO)OH])-NH2) | 232 nM | 
0.2 nM | C[C@@H](O)[C@H](NC(=O)CNC(=O)[C@H](CCC(=O)O)NC(=O)[C@]1(C)CCCN1C(=O)[C@@H](N)Cc1c[nH]cn1)C(=O)N[C@@](C)(Cc1ccccc1F)C(=O)N[C@H](C(=O)N[C@@H](CO)C(=O)N[C@@H](CC(=O)O)C(=O)N[C@@H](Cc1ccc(-c2ccccc2)cc1)C(=O)N[C@](C)(Cc1ccc(-c2ccccc2)cc1)C(N)=O)[C@@H](C)O [4-73-i2, H2N-His-α-MePro-Glu-Gly-Thr-α-MePhe(2F)-Thr-Ser-Asp-Bip-α-MeBip-C(O)NH2] (H-H[αMeP]EGT[αMePhe(2-F)]TSD[Bip][X4]-NH2) |  | 
 | C[C@@H](O)[C@H](NC(=O)CNC(=O)[C@H](CCC(=O)O)NC(=O)C(C)(C)NC(=O)[C@@H](N)Cc1c[nH]cn1)C(=O)N[C@@](C)(Cc1ccccc1F)C(=O)N[C@H](C(=O)N[C@@H](CO)C(=O)N[C@@H](CC(=O)O)C(=O)N[C@@H](Cc1ccc(-c2ccccc2)cc1)C(=O)N[C@@H](CCc1ccc(OC(=O)NCCOCCOCC(=O)NCCOCCOCC(=O)NCCOCCOCC(=O)NC[C@H](NC(=O)CCc2ccc(I)cc2)C(=O)O)cc1)C(N)=O)[C@@H](C)O [4-40, H2N-His-Aib-Glu-Gly-Thr-α-MePhe(2-F)-Thr-Ser-Asp-Bip-Hph(4-OR6)-C(O)NH2] (H-H[Aib]EGT[αMePhe(2-F)]TSD[Bip][X6]([AEEA-AEEA-AEEA-X2])-NH2) | 49.7 nM | 
